The text below walks through data of US6417177B1, “Chloroquine derivatives for the treatment of Parkinson's disease” (Alpha Research Group, LLC, priority 1999, dated 2002).

Data set [1] can be described thus: in vitro comparison of chloroquine phosphate enantiomers for binding to neuromelanin. To be noted: compared between enantiomers of chloroquine phosphate. How it is done: (§1) Enantiomers of chloroquine phosphate were isolated according to the procedure of Stalcup, A. M. et al. (1996), Analytical Chemistry 68:2248-50. Comparisons of these enantiomers with respect to ability to inhibit diamine oxidase and bind to neuromelanin are performed in vitro.

Data set [2] concerns the target T1, diamine oxidase (Homo sapiens, UniProt P19801).
T1 sequence (P19801 20-751): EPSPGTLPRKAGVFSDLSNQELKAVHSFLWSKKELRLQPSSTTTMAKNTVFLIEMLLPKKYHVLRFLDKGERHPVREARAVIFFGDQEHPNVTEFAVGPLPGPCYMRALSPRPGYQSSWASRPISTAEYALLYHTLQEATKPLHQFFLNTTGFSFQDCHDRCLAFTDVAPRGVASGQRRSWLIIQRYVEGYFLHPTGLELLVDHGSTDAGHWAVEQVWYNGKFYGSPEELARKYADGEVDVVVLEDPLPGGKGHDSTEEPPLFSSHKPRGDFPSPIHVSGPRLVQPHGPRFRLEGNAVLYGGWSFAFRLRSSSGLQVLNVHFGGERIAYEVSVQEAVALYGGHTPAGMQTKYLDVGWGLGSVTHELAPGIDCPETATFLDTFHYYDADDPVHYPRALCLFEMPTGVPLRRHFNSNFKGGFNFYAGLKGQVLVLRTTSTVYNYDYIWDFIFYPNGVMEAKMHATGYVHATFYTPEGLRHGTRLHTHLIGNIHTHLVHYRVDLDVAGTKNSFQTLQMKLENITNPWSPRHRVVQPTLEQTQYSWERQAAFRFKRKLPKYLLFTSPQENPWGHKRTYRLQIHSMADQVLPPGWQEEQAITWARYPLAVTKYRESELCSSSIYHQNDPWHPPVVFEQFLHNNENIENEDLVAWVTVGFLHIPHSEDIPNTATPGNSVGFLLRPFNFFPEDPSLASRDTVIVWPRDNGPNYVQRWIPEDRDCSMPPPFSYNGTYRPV
In words: in vitro comparison of chloroquine phosphate enantiomers for inhibition of diamine oxidase. The note with it: compared between enantiomers of chloroquine phosphate. The class given is biochemical. How it is done:
as §1

Data set [3] relates to Parkinson's Disease. To be noted: cited from earlier work.

`CCN(CC)CCCC(C)Nc1ccnc2cc(Cl)ccc12` (single isomer, unassigned) [active enantiomer]: in data set [1], the “ability to bind neuromelanin” value is on record as “significantly enhanced ability”. The “ability to inhibit diamine oxidase” value in data set [2] is given as “significantly enhanced ability”.

As for `C#CCN(C)[C@H](C)Cc1ccccc1` [Deprenyl], the “delay of the need to commence L-DOPA treatment” value in data set [3] (American researchers) was “up to nine months”. Further, in data set [3] (co-administered with L-DOPA, compared to the group treated with L-DOPA only), the “increase in patient mortality” value is 60%. Also, the neural protection entry in data set [3] (two-year patient follow-up examinations) is reported as “no neural protection was found”.
